Test results published in patent US5561042A, “Diamine platinum naphthalimide complexes as antitumor agents” (Cancer Therapy and Research Center, priority 1995, dated 1996).

Key:
Lambda DNA = test: Ethidium bromide displacement, lambda DNA; assay type: binding; conditions: 1 μM DNA, 1.26 μM ethidium bromide, pH 7.0, read-out: FI50, Lambda DNA
Description: A 10× Binding solution was prepared by combining 0.93 ml of an aqueous NaCl solution (5M), 2.0 ml of an aqueous Tris HCl (500 mM) solution, 0.1 ml of an EDTA solution (500 mM) and 46.97 ml of water. The resultant solution was 93 mM in NaCl, 20 mM in Tris HCl, and 1 mM in EDTA. Stock DNA solution were prepared as follows: Poly (dG·dC)-(dG·dC) (ε254=8.4/mM; 27-7910-02), poly(dA·dT)-(dA·dT) (ε262=6.6/mM; 27-7870-02), and lambda DNA (ε260-7.0/mM; 27-4111-01) were purchased from Pharmacia. Solutions were prepared by resuspending either poly (dG·dC)-(dG·dC) or poly(dA·dT)-(dA·dT)in 1 ml of 10× DNA Binding Solution. Lambda DNA is already in solution as purchased.
Poly (dG·dC)-(dG·dC), poly(dA·dt)-(dA·dt) and lambda DNA concentrations were determined as follows: 980 μl of 10× DNA Binding Solution was pipetted into a 1 ml cuvette. A blank was run on the UV spectrophotometer. 20 μl of the DNA stock of unknown concentration was then added into the cuvette. The sample was then scanned between 210 nm to 500 nm and the absorbance recorded at 254 nm for poly(dG·dC)-(dG·dC), at 262 nm for poly(dA·dT)-(dA·dT) and at 260 nm for lambda DNA. The solution was transferred to a clean tube. This procedure was followed for three different solutions with the absorbance taken as the average of the three. The concentration of poly(dG·dC)-(dG·dC) stock was calculated to be A254 /8.4×1000 (in μM). The concentration of poly(dA·dT)-(dA·dT) stock was calculated to be A262 /6.6×1000 (in μM). The concentration of lambda DNA stock was calculated to be A260 /7.0×1000 (in μM).
The binding of the bis-naphthalimides to DNA and to synthetic polynucleotide duplexes was determined by an ethidium bromide displacement assay that measures the reduction of fluorescence when ethidium bromide is displaced from DNA (Baguley, 1981). The fluorescence intensity of a 3 ml solution containing 9.3 mM NaCl, 2 mM Tris-HCl (pH 7.0), 100 μM EDTA, 1 μM DNA (in nucleotides) and 1.26 μM ethidium bromide in a quartz cuvette was measured at the excitation (546 nm) and emission (600 nm) wavelengths on a Shimadzu RF5000U spectrofluorometer. Graded concentrations of agent were then added and the fluorescence intensity was measured. The concentration of compound required to reduce the fluorescence intensity by 50% of that of control (FI50) was determined. Therefore, the lower the FI50 the stronger the binding affinity a particular compound has for DNA.
The ability of bis-naphthalimides of the present invention and the known anti-cancer agents compound 22 and DMP840, (R,R)-2,2'[1,2-ethanediylbis[imino(1-methyl-2,1-ethanediyl)]]-bis[5-nitro- 1H benz[de]isoquinoline-1,3-(2H)dione]dimethanesulfonate, to bind to DNA and to synthetic oligonucleotide duplexes was measured using an ethidium bromide displacement assay. Ethidium bromide, a known DNA intercalator, has no fluorescence in the absence of DNA; however, fluorescence intensity increases when ethidium bromide binds to DNA. The ethidium bromide displacement assay measures the decrease in fluorescence intensity caused by DNA-bound ethidium bromide with DNA interacting agents.

[1] = system: MCF-7 Human Breast Carcinoma cell line; test: In vitro growth inhibition (MTT), MCF-7 breast carcinoma; assay type: cell-based; conditions: 6 days
Text: P388 murine leukemic cell line was obtained from the DCT Tumor Repository (National Cancer Institute, Frederick Cancer Research and Development, Frederick Md. 21702). HT29 Human Colon Carcinoma cell line was obtained from the American Type Culture Collection (12301 Parklawn Drive, Rockville, Md. 20852). B16 Melanoma cell line was obtained from DuPont Merck Pharmaceutical Company (Glenolden, Pa. 19036). MCF-7 Human Breast Carcinoma cell line was a gift from Dr. K. Osborne (Department of Medicine, The University of Texas Health Science Center at San Antonio, San Antonio, Tex. 78284). All cell lines were incubated at 37° C. in a humidified atmosphere of 5% CO2 -95% air. Murine B16 melanoma cell line was grown in RPMI 1640 medium supplemented with 10% heat-inactivated fetal bovine serum, 2 mM L-glutamine, 50 units/ml penicillin, 50 μg/ml streptomycin, 25 μg/ml gentamycin, 0.75% sodium bicarbonate, 10 mM HEPES buffer (pH 7.4), and 0.06 mg/ml AntiPPLO. Murine P388 leukemic and the human HT-29 colon adenocarcinoma cell lines were maintained in RPMI 1640 medium supplemented with 10% heat-inactivated fetal bovine serum. MCF-7M human breast adenocarcinoma was maintained in IMEM medium supplemented with 5% non heat-inactivated fetal bovine serum and 1 nM insulin.
Exponentially growing cells (1-2×10^3 cells, unless specified otherwise) in 0.1 ml medium were seeded on day 0 in a 96-well microtiter plate. On day 1, 0.1 ml aliquots of medium containing graded concentrations of test compounds were added in duplicate to the cell plates. After incubation at 37° C. in a humidified incubator for 3 days (P388, B16) or 6 days (HT-29, MCF-7M), the plates were centrifuged briefly and 100 μl of the growth medium was removed. Cell cultures were incubated with 50 μl of 3-(4,5-dimethylthiazol-2-yl)-2,5-diphenyl-tetrazolium bromide [MTT, 1 mg/ml in Dulbecco's phosphate buffered saline (PBS)] for 4 hr at 37° C. The resulting purple formazan precipitate was solubilized with 200 μl of 0.04N HCl in isopropyl alcohol. Absorbance was monitored in a BioRad Model 3550 Microplate Reader at a test wavelength of 570 nm and a reference wavelength of 630 nm. The absorbance was transferred to a PC 486 computer. The IC50 values were determined by a computer program (EZ-ED50) that fit all of the data to the following four-parameterlogistic equation:
Y=((Am -Ao)/(1+(X/IC50)^n))+Ao
where Am is the absorbance of control cells, Ao is the absorbance of cells in the presence of highest agent concentration, Y is the observed absorbance, X is the agent concentration, IC50 is the concentration of agent that inhibits the cell growth by 50% of control cells (based on the absorbance) and n is the slope of the curve.

Substance: 8-(3'-nitro-1',8'-naphthalimide)-3,6-diazaoctylamine dichloroplatinum(II) [Compound 21]
- IC50 (Lambda DNA): 235 nM
- IC50 [1]: 66 nM
